In PubChem BioAssay (NCI):
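The concentration for 50% growth inhibition is given as GI50. TGI: total growth inhibition.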

Columns and labels:
Assay in all cases: inhibition of tumour cell growth, NCI panel, 384-well format
NCI-H322M lung = test system: NCI-H322M lung
NCI/ADR-RES ovarian = test system: NCI/ADR-RES ovarian
DU-145 prostate = test system: DU-145 prostate
MCF7 breast = test system: MCF7 breast
MDA-MB-435 melanoma = test system: MDA-MB-435 melanoma
786-0 renal = test system: 786-0 renal
KM12 colon = test system: KM12 colon
MDA-MB-231 breast = test system: MDA-MB-231 breast
PC-3 prostate = test system: PC-3 prostate
HS 578T breast = test system: HS 578T breast
NCI-H226 lung = test system: NCI-H226 lung
CCRF-CEM leukemia = test system: CCRF-CEM leukemia
SF-539 CNS = test system: SF-539 CNS
M14 melanoma = test system: M14 melanoma
A498 renal = test system: A498 renal
SR leukemia = test system: SR leukemia
RXF 393 renal = test system: RXF 393 renal
MDA-MB-468 breast = test system: MDA-MB-468 breast
U251 glioblastoma = test system: U251 glioblastoma
CAKI-1 renal = test system: CAKI-1 renal
EKVX NSCLC = test system: EKVX NSCLC
BT-549 breast = test system: BT-549 breast
HOP-62 NSCLC = test system: HOP-62 NSCLC
RPMI-8226 leukemia = test system: RPMI-8226 leukemia
OVCAR-3 ovarian = test system: OVCAR-3 ovarian
NCI-H23 lung = test system: NCI-H23 lung
COLO 205 colon = test system: COLO 205 colon
LOX IMVI melanoma = test system: LOX IMVI melanoma
MOLT-4 leukemia = test system: MOLT-4 leukemia
HCC-2998 colon = test system: HCC-2998 colon
T-47D breast = test system: T-47D breast
SNB-19 CNS = test system: SNB-19 CNS
TK-10 renal = test system: TK-10 renal
IGROV1 ovarian = test system: IGROV1 ovarian
HT29 colon = test system: HT29 colon
UACC-62 melanoma = test system: UACC-62 melanoma
MALME-3M melanoma = test system: MALME-3M melanoma
A549 NSCLC = test system: A549 NSCLC
SF-268 CNS = test system: SF-268 CNS
SF-295 CNS = test system: SF-295 CNS
HOP-92 NSCLC = test system: HOP-92 NSCLC
NCI-H522 lung = test system: NCI-H522 lung
SK-MEL-5 melanoma = test system: SK-MEL-5 melanoma
HL-60(TB) leukemia = test system: HL-60(TB) leukemia
OVCAR-4 ovarian = test system: OVCAR-4 ovarian
SK-MEL-28 melanoma = test system: SK-MEL-28 melanoma
SN12C renal = test system: SN12C renal
HCT-15 colon = test system: HCT-15 colon
ACHN renal = test system: ACHN renal
OVCAR-8 ovarian = test system: OVCAR-8 ovarian
SNB-75 CNS = test system: SNB-75 CNS
SW-620 colon = test system: SW-620 colon
UO-31 renal = test system: UO-31 renal
NCI-H460 NSCLC = test system: NCI-H460 NSCLC
SK-OV-3 ovarian = test system: SK-OV-3 ovarian
HCT-116 colon = test system: HCT-116 colon
K-562 leukemia = test system: K-562 leukemia
OVCAR-5 ovarian = test system: OVCAR-5 ovarian
UACC-257 melanoma = test system: UACC-257 melanoma

## Cc1ccc(NC(=O)c2cccc(C(C)(C)C#N)c2)cc1Nc1ccc2ncn(C)c(=O)c2c1
NCI-H322M lung
  GI50: 2.62 µM
  TGI: > 100 µM
NCI/ADR-RES ovarian
  GI50: 3.06 µM
  TGI: 14.1 µM
DU-145 prostate
  GI50: 3.63 µM
  TGI: > 100 µM
MCF7 breast
  GI50: 5.97 µM
  TGI: > 100 µM
MDA-MB-435 melanoma
  GI50: 0.0617 µM
  TGI: > 100 µM
786-0 renal
  GI50: 4.85 µM
  TGI: > 100 µM
KM12 colon
  GI50: 0.803 µM
  TGI: > 100 µM
MDA-MB-231 breast
  GI50: 0.036 µM
  TGI: 27.3 µM
PC-3 prostate
  GI50: 8.34 µM
  TGI: > 100 µM
HS 578T breast
  GI50: 1.92 µM
  TGI: 9.66 µM
NCI-H226 lung
  GI50: 2.01 µM
  TGI: > 100 µM
CCRF-CEM leukemia
  GI50: 2.19 µM
  TGI: 9.99 µM
SF-539 CNS
  GI50: 7.1 µM
  TGI: > 100 µM
M14 melanoma
  GI50: 0.0119 µM
  TGI: 0.106 µM
A498 renal
  GI50: 5.55 µM
  TGI: > 100 µM
SR leukemia
  GI50: 0.153 µM
  TGI: 0.908 µM
RXF 393 renal
  GI50: 5.05 µM
  TGI: > 100 µM
MDA-MB-468 breast
  GI50: 3.53 µM
  TGI: 44.1 µM
U251 glioblastoma
  GI50: 4.36 µM
  TGI: > 100 µM
CAKI-1 renal
  GI50: 0.343 µM
  TGI: > 100 µM
EKVX NSCLC
  GI50: 6.79 µM
  TGI: > 100 µM
BT-549 breast
  GI50: 6.99 µM
  TGI: > 100 µM
HOP-62 NSCLC
  GI50: 1.8 µM
  TGI: > 100 µM
RPMI-8226 leukemia
  GI50: 1.1 µM
  TGI: 3.33 µM
OVCAR-3 ovarian
  GI50: 3.22 µM
  TGI: > 100 µM
NCI-H23 lung
  GI50: 0.048 µM
  TGI: 1.43 µM
COLO 205 colon
  GI50: 0.0246 µM
  TGI: 8.52 µM
LOX IMVI melanoma
  GI50: 0.0358 µM
  TGI: 1.34 µM
MOLT-4 leukemia
  GI50: 1.86 µM
  TGI: 6.08 µM
HCC-2998 colon
  GI50: 0.0525 µM
  TGI: 1.84 µM
T-47D breast
  GI50: 4.42 µM
  TGI: > 100 µM
SNB-19 CNS
  GI50: 4.82 µM
  TGI: > 100 µM
TK-10 renal
  GI50: 2.92 µM
  TGI: 60.6 µM
IGROV1 ovarian
  GI50: 0.935 µM
  TGI: 7 µM
HT29 colon
  GI50: 0.0579 µM
  TGI: > 100 µM
UACC-62 melanoma
  GI50: 0.0105 µM
  TGI: 0.13 µM
MALME-3M melanoma
  TGI: 0.0178 µM
A549 NSCLC
  GI50: 3.11 µM
  TGI: > 100 µM
SF-268 CNS
  GI50: 4.8 µM
  TGI: > 100 µM
SF-295 CNS
  GI50: 4.63 µM
  TGI: > 100 µM
HOP-92 NSCLC
  GI50: 0.593 µM
  TGI: 2.55 µM
NCI-H522 lung
  GI50: 4.09 µM
  TGI: > 100 µM
SK-MEL-5 melanoma
  GI50: 0.0419 µM
  TGI: 1.78 µM
HL-60(TB) leukemia
  GI50: 0.0135 µM
  TGI: 0.148 µM
OVCAR-4 ovarian
  GI50: 5.43 µM
  TGI: > 100 µM
SK-MEL-28 melanoma
  GI50: 0.0122 µM
  TGI: 0.0749 µM
SN12C renal
  GI50: 0.698 µM
  TGI: > 100 µM
HCT-15 colon
  GI50: 2.91 µM
  TGI: > 100 µM
ACHN renal
  GI50: 2.22 µM
  TGI: > 100 µM
OVCAR-8 ovarian
  GI50: 2.85 µM
  TGI: > 100 µM
SNB-75 CNS
  GI50: 7.19 µM
  TGI: > 100 µM
SW-620 colon
  GI50: 0.798 µM
  TGI: > 100 µM
UO-31 renal
  GI50: 0.527 µM
  TGI: 5.68 µM
NCI-H460 NSCLC
  GI50: 1.47 µM
  TGI: > 100 µM
SK-OV-3 ovarian
  GI50: 4.9 µM
  TGI: > 100 µM
HCT-116 colon
  GI50: 0.136 µM
  TGI: 13.4 µM
K-562 leukemia
  GI50: 0.232 µM
  TGI: 1.06 µM

## Cc1cc2ncnn2cc1Nc1ncc2c(n1)n(C1CCOCC1)c(=O)n2C
NCI-H322M lung
  GI50: 18.8 µM
  TGI: > 100 µM
NCI/ADR-RES ovarian
  GI50: > 100 µM
  TGI: > 100 µM
DU-145 prostate
  GI50: 28.8 µM
  TGI: > 100 µM
MCF7 breast
  GI50: 4.64 µM
  TGI: > 100 µM
MDA-MB-435 melanoma
  GI50: 41.4 µM
  TGI: > 100 µM
786-0 renal
  GI50: 36.4 µM
  TGI: > 100 µM
KM12 colon
  GI50: 18 µM
  TGI: > 100 µM
MDA-MB-231 breast
  GI50: 7.65 µM
  TGI: > 100 µM
PC-3 prostate
  GI50: 8.76 µM
  TGI: > 100 µM
OVCAR-5 ovarian
  GI50: 11.9 µM
  TGI: > 100 µM
HS 578T breast
  GI50: 4.78 µM
  TGI: 37.9 µM
NCI-H226 lung
  GI50: 10.5 µM
  TGI: > 100 µM
CCRF-CEM leukemia
  GI50: 3.21 µM
  TGI: 17.5 µM
SF-539 CNS
  GI50: 58.2 µM
  TGI: > 100 µM
M14 melanoma
  GI50: 19.3 µM
  TGI: > 100 µM
A498 renal
  GI50: 2.66 µM
  TGI: 31.3 µM
SR leukemia
  GI50: 4.11 µM
  TGI: > 100 µM
RXF 393 renal
  GI50: 49.6 µM
  TGI: > 100 µM
MDA-MB-468 breast
  GI50: 5.36 µM
  TGI: 52.7 µM
CAKI-1 renal
  GI50: 16.5 µM
  TGI: > 100 µM
EKVX NSCLC
  GI50: 15.6 µM
  TGI: > 100 µM
BT-549 breast
  GI50: 24.2 µM
  TGI: > 100 µM
HOP-62 NSCLC
  GI50: 22.2 µM
  TGI: > 100 µM
RPMI-8226 leukemia
  GI50: 1.44 µM
  TGI: 3.98 µM
OVCAR-3 ovarian
  GI50: 14.5 µM
  TGI: > 100 µM
NCI-H23 lung
  GI50: 26.5 µM
  TGI: > 100 µM
COLO 205 colon
  GI50: 17.1 µM
  TGI: > 100 µM
LOX IMVI melanoma
  GI50: 14.4 µM
  TGI: > 100 µM
MOLT-4 leukemia
  GI50: 5.53 µM
  TGI: 33.8 µM
HCC-2998 colon
  GI50: 38.2 µM
  TGI: > 100 µM
T-47D breast
  GI50: 1.7 µM
  TGI: 7.63 µM
SNB-19 CNS
  GI50: > 100 µM
  TGI: > 100 µM
TK-10 renal
  GI50: 74.7 µM
  TGI: > 100 µM
UACC-257 melanoma
  GI50: > 100 µM
  TGI: > 100 µM
IGROV1 ovarian
  GI50: 4.91 µM
  TGI: 32.9 µM
HT29 colon
  GI50: 32.9 µM
  TGI: > 100 µM
UACC-62 melanoma
  GI50: 21.2 µM
  TGI: > 100 µM
MALME-3M melanoma
  GI50: 4.21 µM
  TGI: 61.9 µM
A549 NSCLC
  GI50: 12.1 µM
  TGI: > 100 µM
SF-268 CNS
  GI50: > 100 µM
  TGI: > 100 µM
SF-295 CNS
  GI50: 6.33 µM
  TGI: > 100 µM
HOP-92 NSCLC
  GI50: 6.69 µM
  TGI: > 100 µM
NCI-H522 lung
  GI50: 9.5 µM
  TGI: > 100 µM
SK-MEL-5 melanoma
  GI50: 15.5 µM
  TGI: > 100 µM
HL-60(TB) leukemia
  GI50: 35.2 µM
  TGI: > 100 µM
OVCAR-4 ovarian
  GI50: 8.13 µM
  TGI: > 100 µM
SK-MEL-28 melanoma
  GI50: 22.4 µM
  TGI: > 100 µM
SN12C renal
  GI50: 10.4 µM
  TGI: > 100 µM
HCT-15 colon
  GI50: 12 µM
  TGI: > 100 µM
ACHN renal
  GI50: 21.5 µM
  TGI: > 100 µM
OVCAR-8 ovarian
  GI50: 50.5 µM
  TGI: > 100 µM
SNB-75 CNS
  GI50: 6.38 µM
  TGI: > 100 µM
SW-620 colon
  GI50: > 100 µM
  TGI: > 100 µM
UO-31 renal
  GI50: > 100 µM
  TGI: > 100 µM
NCI-H460 NSCLC
  GI50: 4.88 µM
  TGI: > 100 µM
SK-OV-3 ovarian
  GI50: 6.16 µM
  TGI: > 100 µM
K-562 leukemia
  GI50: > 100 µM
  TGI: > 100 µM
